Experimental data as given in ChEMBL document CHEMBL1125091, “Antiulcer agents. 4-substituted 2-guanidinothiazoles: reversible, competitive, and selective inhibitors of gastric H+,K(+)-ATPase” (J Med Chem, 1990).
Values joined by “and” are separate entries in the source; they are usually repeats but may differ in a detail not shown here. Equal entries are not always repeated.

Legend:
[1] = test system: Potassium-transporting ATPase (Canis familiaris); assay: Percent inhibition of gastric proton-pump enzyme H+/K+ ATPase was determined at 50 uM; details: Canis lupus familiaris, Stomach
[2] = target: Potassium-transporting ATPase (Canis familiaris); assay: Inhibitory activity against dog gastric proton-pump enzyme H+/K+ ATPase

SMILES | inhibition [1] | IC50 [2]
Cc1ccccc1-c1csc(N=C(N)N)n1 | 78% | 20 µM
N=C(NCc1ccccc1)Nc1nc(-c2ccccc2)cs1 | -1% | –
Cc1ccc(-c2csc(N=C(N)NCc3ccccc3)n2)[nH]1 | – | 7 µM
Cc1[nH]ccc1-c1nc(NC(=N)NCc2ccccc2)sc1C | 80% | 8.8 µM
COc1cccc(-c2csc(NC(=N)NCc3ccccc3)n2)c1 | 85% | 10 µM
N=C(N)Nc1ccc(-c2ccccc2)cc1 | 16% | –
Cc1cc(-c2nc(NC(=N)NCCc3ccccc3)sc2C)c[nH]1 | 87% | 9.1 µM
N=C(N)Nc1nc(-c2cccc(O)c2)cs1 | 69% | 23 µM
Cc1[nH]c2ccc(Cl)cc2c1-c1nc(NC(=N)NCc2ccccc2)sc1C | 100% | 1.1 µM
COc1ccccc1-c1csc(NC(=N)NCc2ccccc2)n1 | 99% | 2.3 µM
Cc1sc(N=C(N)NCc2ccccc2)nc1-c1c[nH]c2ccc(Cl)cc12 | – | 0.7 µM
Cc1cc(-c2nc(NC(=N)NCc3ccccc3)sc2C)c[nH]1 | 83% | 7.9 µM
COc1ccccc1-c1csc(N=C(N)N)n1 | 70% | 27 µM
Cc1cc(-c2csc(NC(=N)NCc3ccc(Cl)cc3)n2)c[nH]1 | 95% | 7 µM
Cc1cc(-c2csc(NC(=N)NCc3ccccc3)n2)c[nH]1 | 97% | 11 µM
N=C(N)Nc1nc(-c2ccccc2)co1 | 0% | –
Cc1cccc2[nH]cc(-c3csc(N=C(N)NCc4ccccc4)n3)c12 | – | 3.3 µM
CN(C)Cc1ccccc1-c1csc(N=C(N)N)n1 | 27% | –
Cc1nc(-c2c[nH]c(C=O)c2)cs1 | 5% | –
N=C(N)Nc1cc(Cl)nc(-c2ccccc2)n1 | 89% | –
N=C(N)Nc1nc(-c2c[nH]c(CN3CCCCC3)c2)cs1 | 55% | –
Cc1sc(NC(=N)NCc2ccccc2)nc1-c1c[nH]c2ccccc12 | 34% | –

SMILES | inhibition [1] | IC50 [2]
CCCCC/N=C(\N)Nc1nc(-c2cccc(OC)c2)cs1 | 25% | –
N=C(NCc1ccccc1)Nc1nc(-c2c[nH]c3ccc(Cl)cc23)cs1 | 92% | 0.7 µM
Cc1sc(N=C(N)N)nc1-c1ccn(S(=O)(=O)c2ccccc2)c1C | 100% | 4.2 µM
N=C(N)Nc1nc(-c2ccc(Cl)cc2)cs1 | 48% | –
N=C(NCc1ccccc1)Nc1nc(-c2cccc(Cl)c2)cs1 | 80% | –
N=C(N)Nc1nc(-c2c[nH]c3ccc(F)cc23)cs1 | 90% | 7.4 µM
N=C(N)Nc1nc(-c2c[nH]c3ccc(OCc4ccccc4)cc23)cs1 | 78% | 1.2 µM
N#Cc1ccc2[nH]cc(-c3csc(NC(=N)N)n3)c2c1 | 80% | –
N=C(N)Nc1nc(-c2ccccc2Cl)cs1 | 71% | 18 µM and 9 µM
N=C(N)Nc1nc(-c2c[nH]c3ccccc23)cs1 | 91% | 9 µM
COc1ccc(-c2csc(N=C(N)N)n2)cc1OC | 41% | –
N=C(N)Nc1nc(-c2ccccc2O)cs1 | 26% | –
Cc1cccc2[nH]cc(-c3csc(NC(=N)NCc4ccccc4)n3)c12 | 103% | –
Cc1cc(-c2csc(N=C(N)N)n2)cn1S(=O)(=O)c1ccccc1 | 92% | 2 µM
N=C(NCc1ccccc1)Nc1nc(-c2cc3cc(F)ccc3[nH]2)cs1 | 49% | –
Cc1sc(NC(=N)NCc2ccccc2)nc1-c1ccc(O)c(O)c1 | 103% | 1.3 µM
N=C(N)Nc1nc(-c2cc3ccccc3[nH]2)cs1 | 72% | 14 µM
N=C(N)Nc1nc(-c2ccc(-c3ccccc3)cc2)cs1 | 25% | –
Cc1cccc(-c2csc(NC(=N)NCc3ccccc3)n2)c1 | 53% | –
N=C(N)Nc1nc(-c2ccccc2)cs1 | 52% | –
N=C(NCc1ccccc1)Nc1nc(-c2c[nH]c3ccc(F)cc23)cs1 | 96% | 2.7 µM
Cc1cc(-c2csc(C)n2)c[nH]1 | 0% | –

SMILES | inhibition [1] | IC50 [2]
Cc1ccc2[nH]cc(-c3csc(NC(=N)NCc4ccccc4)n3)c2c1 | 104% | 0.94 µM
Cc1ccc2c(-c3csc(NC(=N)NCc4ccccc4)n3)c[nH]c2c1 | 98% | 1.6 µM
Cc1ccc(C/N=C(\N)Nc2nc(-c3c[nH]c(C)c3)c(C)s2)cc1 | 95% | 2.9 µM
Cc1cccc2c(-c3csc(NC(=N)NCc4ccccc4)n3)c[nH]c12 | 92% | 1 µM
NC(N)=Nc1nc(-c2ccccc2)cs1 | – | 40 µM
N/C(=N\Cc1ccccc1)Nc1nc(-c2ccc(N)cc2)cs1 | 77% | 5.2 µM
Cc1cc(-c2csc(NC(=N)NCc3ccccc3)n2)cn1S(=O)(=O)c1ccccc1 | 69% | –
Cc1c(-c2csc(N=C(N)N)n2)ccn1S(=O)(=O)c1ccccc1 | 101% | 2 µM
CCCCCC/N=C(\N)Nc1nc(-c2c[nH]c(C)c2)cs1 | 93% | 7 µM
N=C(N)Nc1nc(-c2ccc(O)cc2)cs1 | 75% | 15 µM
N=C(NCc1ccccc1)Nc1nc(-c2ccccc2Cl)cs1 | 99% | 6 µM
Cc1ccc(-c2csc(NC(=N)NCc3ccccc3)n2)[nH]1 | 83% | –
CCCCCCN(C)C(=N)Nc1nc(-c2c[nH]c(C)c2)cs1 | 54% | –
Cc1cc(-c2csc(NC3=NCCN3C)n2)c[nH]1 | 13% | –
Cc1cc(-c2csc(N=C(N)N)n2)cn1C | 74% | 24 µM
Cc1[nH]c(-c2csc(N=C(N)N)n2)cc1C(=O)N(C)C | 33% | –
CN(C)c1ccc(-c2csc(N=C(N)N)n2)cc1 | 75% | 14 µM
N=C(NCc1ccccc1)Nc1nc(-c2ccc[nH]2)cs1 | 81% | 9 µM
N/C(=N\Cc1ccccc1)Nc1nc(-c2ccc(O)cc2)cs1 | 49% | –
COC(=O)c1ccc2[nH]cc(-c3csc(N=C(N)N)n3)c2c1 | 86% | 6.7 µM
N=C(N)Nc1nc(-c2ccc(N)cc2)cs1 | 63% | 32 µM
Cc1c(-c2csc(NC(=N)NCc3ccccc3)n2)ccn1S(=O)(=O)c1ccccc1 | 54% | –

SMILES | inhibition [1] | IC50 [2]
N=C(N)Nc1nc(-c2c[nH]c(C=O)c2)cs1 | 44% | –
CCCCCC/N=C(\NC)Nc1nc(-c2c[nH]c(C)c2)cs1 | 68% | –
N=C(N)Nc1nc(-c2ccc[nH]2)cs1 | 68% | 30 µM
Cc1sc(N=C(N)N)nc1-c1ccc(O)c(O)c1 | 97% | 1.6 µM
Cc1cc(-c2csc(NC(=N)N3CCCCC3)n2)c[nH]1 | 34% | –
Cc1ccc(-c2csc(N=C(N)N)n2)n1C | 20% | –
COc1cccc(-c2csc(N=C(N)N)n2)c1 | 48% | 60 µM
Nc1nc(-c2c[nH]c(C=O)c2)cs1 | 9% | –
Cc1[nH]ccc1-c1csc(N=C(N)N)n1 | 96% | 7 µM
Cc1[nH]c2ccc(Cl)cc2c1-c1nc(N=C(N)N)sc1C | 103% | 0.6 µM
NC(N)=Nc1cc(Cl)nc(-c2ccccc2)n1 | – | 6 µM
N/C(=N\Cc1ccccc1)Nc1nc(-c2ccccc2O)cs1 | 85% | 11 µM
COc1ccc(-c2csc(NC(=N)NCc3ccccc3)n2)cc1 | 24% | –
Cc1ccc2[nH]cc(-c3csc(N=C(N)N)n3)c2c1 | 76% | 1.8 µM
Cn1cc(-c2csc(N=C(N)N)n2)cc1C=O | 44% | –
Cc1sc(NC(=N)NCc2ccccc2)nc1-c1ccn(S(=O)(=O)c2ccccc2)c1C | 35% | –
N=C(NCc1ccccc1)Nc1nc(-c2ccc(Cl)cc2)cs1 | 38% | –
N#Cc1ccc2[nH]cc(-c3csc(NC(=N)NCc4ccccc4)n3)c2c1 | 50% | –
Cc1cc(-c2csc(NC3=NCCN3)n2)c[nH]1 | 25% | –
N=C(NCc1ccccc1)Nc1nc(-c2c[nH]c3ccccc23)cs1 | 102% | 1.5 µM
N=C(N)Nc1nc(-c2cc3cc(F)ccc3[nH]2)cs1 | 87% | 4 µM
N=C(N)Nc1nc(-c2c[nH]c(C(=O)N3CCCCC3)c2)cs1 | 69% | 17 µM

SMILES | inhibition [1] | IC50 [2]
Cc1ccc(-c2csc(N=C(N)N)n2)n1S(=O)(=O)c1ccccc1 | 91% | 7 µM
N=C(NCc1ccccc1)Nc1nc(-c2cc3cc(Cl)ccc3[nH]2)cs1 | 97% | 9.1 µM
COc1ccc2[nH]cc(-c3csc(N=C(N)N)n3)c2c1 | 70% | 19 µM
CCOC(=O)c1cc(-c2csc(N=C(N)N)n2)[nH]c1C | 91% | 7 µM
COc1ccc(-c2csc(NC(=N)NCc3ccccc3)n2)cc1OC | 25% | –
Cc1ccc(-c2csc(NC(=N)NCc3ccccc3)n2)n1S(=O)(=O)c1ccccc1 | 57% | 26 µM
N=C(NCc1ccccc1)Nc1nc(-c2cc3ccccc3[nH]2)cs1 | 61% | 16 µM
Cc1ccccc1-c1csc(NC(=N)NCc2ccccc2)n1 | 111% | 10 µM
N=C(N)Nc1nc(-c2cc[nH]c2)cs1 | 68% | –
N=C(NCc1ccccc1)Nc1nc(-c2ccc(-c3ccccc3)cc2)cs1 | 5% | –
Cc1cc(-c2csc(NC3=NCCCN3Cc3ccccc3)n2)c[nH]1 | 19% | –
N=C(NCc1ccccc1)Nc1nc(-c2ccc(F)cc2)cs1 | 35% | –
CN(C)c1cccc(-c2csc(NC(=N)N)n2)c1 | 52% | –
N=C(N)Nc1nc(-c2cccc(N)c2)cs1 | 45% | –
Cc1ccc(-c2csc(N=C(N)N)n2)cc1 | 61% | –
N/C(=N\Cc1ccccc1)Nc1nc(-c2cccc(O)c2)cs1 | 8% | –
Cc1ccc(-c2csc(NC(=N)NCc3ccccc3)n2)cc1 | 16% | –
N=C(N)NCCc1c[nH]c2ccccc12 | 15% | –
Cc1cc(-c2csc(N)n2)c[nH]1 | 17% | –
